These results are taken from patent US8580747B2, “Cyclic natriuretic peptide constructs” (Palatin Technologies, Inc., priority 2006, dated 2013).

What is called clearance is the volume of plasma or blood freed of the substance per unit of time. A word on the AUC: it is the area under the concentration-time curve, a measure of exposure. A word on the Vd: it is a proportionality between amount in the body and measured concentration, not a real space. A low value points to little distribution into tissue. In general, half-life refers to how long it takes for the measured level to halve. Low values mean fast loss, high ones slow loss.

The structures appear in SMILES notation. Where two headings read alike, the source gives them in different places. Bridge positions count the residues as written; N and C are the ends. Square brackets hold non-standard residues; d marks the D form. Peptide text beside a SMILES is read from it. * marks the point of attachment. Piperazin2one(3S-Bu,6R-CO) = CCCC[C@@H]1NC[C@H](C(=O)*)NC1=O; X2 = N=C(N)NCCC[C@@H]1C(=O)N[C@@H](C(N)=O)CN1*; X1 = N=C(N)NCCC[C@H]1C(=O)N[C@@H](C(N)=O)CN1*; X3 = CC(C)C[C@@H]1NC[C@H](C(=O)*)NC1=O; dNle = CCCC[C@@H](N)C(=O)O; Nle = CCCC[C@H](N)C(=O)O

The target in data set [1] is T1, NEP (neutral endopeptidase) (Homo sapiens, UniProt P08473).
T1 construct: purchased R&D Systems, Minneapolis, Minn; 1182-ZN
T1 sequence (P08473 52-750 limits assumed): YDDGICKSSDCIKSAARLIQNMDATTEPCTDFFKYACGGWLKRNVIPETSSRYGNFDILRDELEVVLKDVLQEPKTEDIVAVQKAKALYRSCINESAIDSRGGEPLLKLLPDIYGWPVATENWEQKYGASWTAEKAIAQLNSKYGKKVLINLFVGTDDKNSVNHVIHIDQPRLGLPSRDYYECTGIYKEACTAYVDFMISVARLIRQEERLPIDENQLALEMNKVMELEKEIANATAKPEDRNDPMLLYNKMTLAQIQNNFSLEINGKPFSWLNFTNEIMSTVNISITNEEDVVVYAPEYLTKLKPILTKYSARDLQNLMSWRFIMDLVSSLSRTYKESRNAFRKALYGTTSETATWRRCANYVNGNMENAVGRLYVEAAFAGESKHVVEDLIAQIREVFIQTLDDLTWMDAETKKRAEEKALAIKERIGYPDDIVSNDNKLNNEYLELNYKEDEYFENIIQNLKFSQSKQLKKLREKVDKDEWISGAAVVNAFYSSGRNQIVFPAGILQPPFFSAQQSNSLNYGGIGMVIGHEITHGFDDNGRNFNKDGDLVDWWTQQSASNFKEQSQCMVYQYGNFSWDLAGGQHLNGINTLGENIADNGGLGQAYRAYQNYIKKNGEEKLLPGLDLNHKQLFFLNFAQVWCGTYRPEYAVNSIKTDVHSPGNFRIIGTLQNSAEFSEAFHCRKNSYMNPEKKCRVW
Kind of data set: hNEP resistance assay (digestion by neutral endopeptidase). Conditions: pH 7.4. Type of data set: in vitro ADME. On the procedure:
NEP resistance of various constructs of the invention was evaluated using the following experimental procedure. All constructs were diluted in 0.1 M Tris-HCL buffer (pH 7.4) to 100 μM. 40 μL of diluted constructs were added to each tube and all tubes were kept on ice. 40 μL of diluted NEP, either human recombinant NEP (R&D Systems, Minneapolis, Minn., catalogue #1182-ZN) at 8 ng/μL or mouse NEP (R&D Systems, catalog #1126-ZN) at 2.5 ng/μL, was added to each tube. The tubes were mixed gently and spun. […] At the end of the incubation time, the reaction was stopped by adding 5 μL of 10% TFA. […] The extent to which NEP was active against the constructs was then analyzed by HPLC and/or LC/MS. Data analysis included determining the percent of remaining starting material, i.e., undigested peptide construct, and the percent and sequence of each proteolytic fragment.

The conditions of data set [2]: rat, in vivo, iv.
Where [3] appears, read: human, isolated enzyme neprilysin.

In data set [1] (setting [3]), `CCCC[C@@H]1NC[C@H](C(=O)N[C@H]2CSSC[C@@H](C(=O)N[C@H](Cc3ccc(O)cc3)C(=O)N3C[C@H](C(N)=O)NC(=O)[C@@H]3CCCNC(=N)N)NC(=O)[C@H](CO)NC(=O)[C@H]([C@@H](C)CC)NC(=O)[C@H](CCCNC(=N)N)NC(=O)[C@H](CC(=O)O)NC(=O)[C@H](CCCC)NC(=O)[C@H](CCCNC(=N)N)NC(=O)CNC(=O)CNC(=O)[C@H](Cc3ccccc3)NC(=O)[C@H](Cc3c[nH]cn3)NC2=O)NC1=O` [1-53] ({Piperazin2one(3S-Bu,6R-CO)}-CHFGGR[Nle]DRISC[dY]-X1; disulfide 1-12) yielded a remaining at 1 h, 50 µM of 87% and a remaining at 2 h, 50 µM of 78%. Moreover, the clearance in data set [2] is 40 mL/min/kg.

On to `CCCC[C@@H]1NC[C@H](C(=O)N[C@H]2CSSC[C@@H](C(=O)N[C@@H](Cc3ccc(O)cc3)C(=O)N3C[C@H](C(N)=O)NC(=O)[C@H]3CCCNC(=N)N)NC(=O)[C@H](CO)NC(=O)[C@H]([C@@H](C)CC)NC(=O)[C@H](CCCNC(=N)N)NC(=O)[C@H](CC(=O)O)NC(=O)[C@@H](CCCC)NC(=O)[C@H](CCCNC(=N)N)NC(=O)CNC(=O)[C@@H](C)NC(=O)[C@H](Cc3ccccc3)NC(=O)[C@H](Cc3c[nH]cn3)NC2=O)NC1=O` [1-133] ({Piperazin2one(3S-Bu,6R-CO)}-CHF[dA]GR[dNle]DRISCY-X2; disulfide 1-12), for which, in data set [1] (human recombinant NEP (neutral endopeptidase), incubation with human recombinant NEP at 37° C., 1 h, read-out: hNEP % of Starting Material 1 h), the remaining at 1 h, 50 µM was found to be 96%. The remaining at 2 h, 50 µM in data set [1] (human recombinant NEP (neutral endopeptidase), incubation with human recombinant NEP at 37° C., 2 h, read-out: hNEP % of Starting Material 2 h) worked out at 93%. In data set [2], this compound had a clearance of 12 mL/min/kg.

In data set [2] (2 mg/kg), `CCCC[C@@H]1NC(=O)[C@H](CCCNC(=N)N)NC(=O)CNC(=O)CNC(=O)[C@H](Cc2ccccc2)NC(=O)[C@H](Cc2c[nH]cn2)NC(=O)[C@@H](NC(=O)[C@H]2CN[C@@H](CC(C)C)C(=O)N2)CSSC[C@@H](C(=O)N[C@@H](Cc2ccc(O)cc2)C(=O)N2C[C@H](C(N)=O)NC(=O)[C@@H]2CCCNC(=N)N)NC(=O)[C@H](CO)NC(=O)[C@H]([C@@H](C)CC)NC(=O)[C@H](CCCNC(=N)N)NC(=O)[C@H](CC(=O)O)NC1=O` [1-51] (X3-CHFGGR[Nle]DRISCY-X1; disulfide 1-12) had an AUC of 0.19 µM·h, a volume of distribution (Vd) of 1 L/kg, a clearance of 94 mL/min/kg and a half-life of 12 min.

On to `CCCC[C@@H]1NC[C@H](C(=O)N[C@H]2CSSC[C@@H](C(=O)N[C@@H](Cc3ccc(O)cc3)C(=O)N3C[C@H](C(N)=O)NC(=O)[C@@H]3CCCNC(=N)N)NC(=O)[C@H](CO)NC(=O)[C@H]([C@@H](C)CC)NC(=O)[C@H](CCCNC(=N)N)NC(=O)[C@H](CC(=O)O)NC(=O)[C@H](CCCC)NC(=O)[C@H](CCCNC(=N)N)NC(=O)CNC(=O)CNC(=O)[C@@H](Cc3ccccc3)NC(=O)[C@H](Cc3c[nH]cn3)NC2=O)NC1=O` [1-39] ({Piperazin2one(3S-Bu,6R-CO)}-CH[dF]GGR[Nle]DRISCY-X1; disulfide 1-12), for which, in data set [2] (2 mg/kg), the area under the curve (AUC) was 0.142 µM·h, the Vd stood at 2.8 L/kg, the clearance came to 134 mL/min/kg and the half-life was 18 min.

As for `CCCC[C@@H]1NC[C@H](C(=O)N[C@H]2CSSC[C@@H](C(=O)N[C@@H](Cc3ccc(O)cc3)C(=O)N3C[C@H](C(N)=O)NC(=O)[C@@H]3CCCNC(=N)N)NC(=O)[C@H](C)NC(=O)[C@H]([C@@H](C)CC)NC(=O)[C@H](CCCNC(=N)N)NC(=O)[C@H](CC(=O)O)NC(=O)[C@H](CCCC)NC(=O)[C@H](CCCNC(=N)N)NC(=O)CNC(=O)CNC(=O)[C@H](Cc3ccccc3)NC(=O)[C@H](C)NC2=O)NC1=O` [1-69] ({Piperazin2one(3S-Bu,6R-CO)}-CAFGGR[Nle]DRIACY-X1; disulfide 1-12), in data set [2] (2 mg/kg), the AUC was determined as 0.113 µM·h, the distribution volume (Vd) was determined as 0.8 L/kg, the clearance is 168 mL/min/kg and the half-life was 6 min.

As to `CCCC[C@@H]1NC[C@H](C(=O)N[C@H]2CSSC[C@@H](C(=O)N[C@@H](Cc3ccc(O)cc3)C(=O)N3C[C@H](C(N)=O)NC(=O)[C@@H]3CCCNC(=N)N)NC(=O)[C@H](CO)NC(=O)[C@H]([C@@H](C)CC)NC(=O)[C@@H](CCCNC(=N)N)NC(=O)[C@H](CC(=O)O)NC(=O)[C@H](CCCC)NC(=O)[C@H](CCCNC(=N)N)NC(=O)CNC(=O)CNC(=O)[C@H](Cc3ccccc3)NC(=O)[C@H](Cc3c[nH]cn3)NC2=O)NC1=O` [1-45] ({Piperazin2one(3S-Bu,6R-CO)}-CHFGGR[Nle]D[dR]ISCY-X1; disulfide 1-12), in data set [2] (2 mg/kg), the exposure (AUC) worked out at 0.85 µM·h, the Vd worked out at 0.3 L/kg, the clearance was 23 mL/min/kg and the half-life is 18 min.

In data set [2] (2 mg/kg), `CCCC[C@@H]1NC[C@H](C(=O)N[C@H]2CSSC[C@@H](C(=O)N[C@@H](Cc3ccc(O)cc3)C(=O)N3C[C@H](C(N)=O)NC(=O)[C@@H]3CCCNC(=N)N)NC(=O)[C@H](CO)NC(=O)[C@H]([C@@H](C)CC)NC(=O)[C@H](CCCNC(=N)N)NC(=O)[C@H](CC(=O)O)NC(=O)[C@H](CCCC)NC(=O)[C@@H](CCCNC(=N)N)NC(=O)CNC(=O)CNC(=O)[C@H](Cc3ccccc3)NC(=O)[C@H](Cc3c[nH]cn3)NC2=O)NC1=O` [1-42] ({Piperazin2one(3S-Bu,6R-CO)}-CHFGG[dR][Nle]DRISCY-X1; disulfide 1-12) showed an exposure (AUC) of 0.369 µM·h, a Vd of 0.7 L/kg, a clearance of 50 mL/min/kg and a half-life of 18 min.

Turning to `CCCC[C@@H]1NC[C@H](C(=O)N[C@H]2CSSC[C@@H](C(=O)N[C@@H](Cc3ccc(O)cc3)C(=O)N3C[C@H](C(N)=O)NC(=O)[C@@H]3CCCNC(=N)N)NC(=O)[C@H](CO)NC(=O)[C@H]([C@@H](C)CC)NC(=O)[C@H](CCCNC(=N)N)NC(=O)[C@H](CC(=O)O)NC(=O)[C@H](CCCC)NC(=O)[C@H](CCCNC(=N)N)NC(=O)CNC(=O)CNC(=O)[C@H](Cc3ccccc3)NC(=O)[C@@H](Cc3c[nH]cn3)NC2=O)NC1=O` [1-28] ({Piperazin2one(3S-Bu,6R-CO)}-C[dH]FGGR[Nle]DRISCY-X1; disulfide 1-12), in data set [2] (2 mg/kg), the area under the curve (AUC) was 0.351 µM·h, the Vd was 1.1 L/kg, the clearance was found to be 51 mL/min/kg and the half-life was 24 min.

`CCCC[C@@H]1NC[C@H](C(=O)N[C@H]2CSSC[C@@H](C(=O)N[C@@H](Cc3ccc(O)cc3)C(=O)N3C[C@H](C(N)=O)NC(=O)[C@@H]3CCCNC(=N)N)NC(=O)[C@H](CO)NC(=O)[C@H]([C@@H](C)CC)NC(=O)[C@H](CCCNC(=N)N)NC(=O)[C@H](CC(=O)O)NC(=O)[C@H](CCCC)NC(=O)[C@H](CCCNC(=N)N)NC(=O)CNC(=O)[C@@H](C)NC(=O)[C@H](Cc3ccccc3)NC(=O)[C@H](Cc3c[nH]cn3)NC2=O)NC1=O` [1-68]: in data set [2] (2 mg/kg), the AUC came to 0.478 µM·h, the volume of distribution (Vd) is 0.5 L/kg, the clearance is 40 mL/min/kg and the half-life is 18 min.

As to `CCCC[C@@H]1NC[C@H](C(=O)N[C@H]2CSSC[C@@H](C(=O)N[C@@H](Cc3ccc(O)cc3)C(=O)N3C[C@H](C(N)=O)NC(=O)[C@@H]3CCCNC(=N)N)NC(=O)[C@H](CO)NC(=O)[C@H]([C@@H](C)CC)NC(=O)[C@H](CCCNC(=N)N)NC(=O)[C@H](C)NC(=O)[C@H](CCCC)NC(=O)[C@H](CCCNC(=N)N)NC(=O)CNC(=O)CNC(=O)[C@H](Cc3ccccc3)NC(=O)[C@H](Cc3c[nH]cn3)NC2=O)NC1=O` [1-35], in data set [2] (2 mg/kg), the exposure (AUC) came to 0.01 µM·h, the Vd was 57 L/kg, the clearance worked out at 1860 mL/min/kg and the half-life was 24 min.
